Reference: patent publication US9611283B1, “Methods for inhibiting cell proliferation in ALK-driven cancers” (ARIAD Pharmaceuticals, Inc., priority 2013, dated 2017)
Like-named read-outs stand apart in the source and are kept apart here. Each block holds one molecule with its values, some of them ahead of it.

Legend:
[1] = test system: Parental Ba/F3 cells; assay: In vitro viability / Ba/F3 cellular proliferation assay, parental cells; type: cell-based; settings: Mus musculus; for IC50: BaF3
[2] = molecular target: Ba/F3 cells expressing EML4-ALK 1151 T insertion (Homo sapiens, UniProt Q9UM73, DUP1151-1151); assay: Ba/F3 cellular proliferation assay, EML4-ALK 1151 T insertion; settings: Table 2
[3] = test system: EML4-ALK S1206R tumors; assay: Pharmacodynamics: p-ALK in EML4-ALK S1206R tumors in vivo; set-up: species or system mice; settings: sustained for 24 hrs after single dose of 50 mg/kg
Method: Calibration standards were prepared in blank mouse plasma.

[4] = test system: Ba/F3 EML4-ALK G1269S tumors; assay: In vivo efficacy, xenograft of Ba/F3 cells expressing EML4-ALK G1269S; set-up: species or system SCID Beige mice; settings: 50 and 75 mg/kg, once daily oral gavage
[5] = test system: Ba/F3 EML4-ALK S1206R tumors; assay: In vivo efficacy, xenograft of Ba/F3 cells expressing EML4-ALK S1206R; set-up: species or system SCID Beige mice; settings: 75 mg/kg, once daily oral gavage
[6] = test system: Ba/F3 cells expressing native EML4-ALK; assay: Accelerated in vitro mutagenesis screen
[7] = clinical, at MTD; cited from earlier work
[8] = Table 2, Ba/F3 parental, read-out: IC50

IC50 [2]: 5.94 ± 2.28 µM
Structure (SMILES): COc1cc(N2CCC(N3CCN(C)CC3)CC2)ccc1Nc1ncnc(Nc2ccccc2S(=O)(=O)C(C)C)n1 [ASP3026]
IC50 [1, 8]: > 10 µM

Structure (SMILES): CCc1cc2c(cc1N1CCC(N3CCOCC3)CC1)C(C)(C)c1[nH]c3cc(C#N)ccc3c1C2=O [CH5424802]
IC50 [1, 8]: > 10 µM

Structure (SMILES): COc1cc(N2CCC(N3CCN(C)CC3)CC2)ccc1Nc1ncc(Cl)c(Nc2ccccc2P(C)(C)=O)n1 [Compound 1]
IC50 ([1]; Table 1, Parental Ba/F3 (IL-3), 72 h, n = 5, read-out: IC50s): 2.19 ± 0.41 µM
IC50 [1, 8]: 4.58 ± 1.55 µM
p-ALK inhibition [3]: 40-60%
tumor response in xenograft [4]: complete tumor regression
tumor response in xenograft [5]: tumor growth inhibition
mutations recovered ([6]; at 500 nM (S1206R)): only one
concentration that completely suppressed the emergence of resistance ([6]; mutagenesis screen): 1000 nM
mutants recovered in the screen ([6]; number of different mutants): ten

Structure (SMILES): C[C@@H](Oc1cc(-c2cnn(C3CCNCC3)c2)cnc1N)c1c(Cl)ccc(F)c1Cl [crizotinib]
inhibition at […] ([1]; BaF3, read-out: inhibition of parental Ba/F3 cell proliferation): > 90%
IC50 [1, 8]: 2.06 ± 0.373 µM
median Ctrough [7]: ~225 ng/mL
